Where “and” joins values, the source holds several entries; their conditions need not be identical. Equal entries are not always repeated.
How the values were obtained:
[1] = test system: malignant skin diseases and solid tumors of other organs; assay: High oral daily doses of 9-cis retinoic acid in malignant skin diseases and solid tumors; assay type: in vivo; conditions: high oral daily doses of up to 300 mg
[2] = test system: T-helper cell type 1 mediated immune diseases; assay: Low oral daily doses of 9-cis retinoic acid in T-helper cell type 1 mediated immune diseases
[3] = test system: non-malignant skin-disorders, such as acne, psoriasis, lamellar ichthyosis, Darier's disease and lichen planus; conditions: low daily doses of 20 to 60 mg
chronic hand eczema = assay: Once daily oral 9-cis retinoic acid in patients with chronic hand eczema refractory to conventional treatment
Method: Fifteen patients, eight men and seven women, with chronic hand eczema, refractory to conventional treatment, were treated with 9-cis retinoic acid. Their mean age was 52.3 years, range 21-83. Before the start of 9-cis retinoic acid therapy, their eczema had already lasted for 3 months to 8 years, with a mean of 29 months. […] Therapy consisted in a once daily oral dose of 40 mg 9-cis retinoic acid, given in the form of two soft gelatin capsules containing 20 mg of 9-cis retinoic acid each, with breakfast. 8 patients received in the first week only 20 mg. Mean duration of treatment was 2 months, range 1-3 months. The following lesions and symptoms were recorded on a 0-4 scale (0=none, 1=mild, 2=moderate and 4=severe) and used for evaluating the therapeutic effect: Erythema, papules and vesicles, desquamation, hyperkeratosis, rhagades and pruritus/pain. Side effects, particularly those belonging to the hypervitaminosis A syndrome, were recorded: Headache, dry lips, other mucocutaneous manifestations, muscoskeletal symptoms and laboratory abnormalities.

[4] = higher doses; Kurie et al. 1996, Miller et al. 1996; cited from earlier work
[5] = 0-4 scale, individual patient, after 40 mg oral daily for 1-3 months
[6] = 0-4 scale, individual patient, before 40 mg oral daily
[7] = for all 15 patients, 40 mg daily oral
[8] = for the 14 responding patients, 40 mg daily oral
[9] = for the 14 responding patients, 40 mg daily oral, listed as 9-cis retinoic acid
[10] = individual patient, 40 mg oral daily for 1-3 months

CC1=C(/C=C/C(C)=C\C=C\C(C)=C\C(=O)O)C(C)(C)CCC1 [9-cis RA, 9-cis retinoic acid]
Objective tumor regressions [1]: did not lead to major objective tumor regressions
Side effects [1]: marked to severe side effects
Other toxic signs and symptoms of the hypervitaminosis A syndrome, including the laboratory abnormalities ([2]; daily doses typically 20 to 60 mg, oral): not induced
Efficacy in treatment of T-helper cell type 1 mediated immune diseases ([2]; low daily doses of 20 to 60 mg): efficacious
Therapeutic effect on non-malignant skin-disorders [3]: no therapeutic effect
Desquamation, after treatment (chronic hand eczema; [5]): 1 (5×) and 0 (6×) and 3/3 and 0/0 (2×) and 0.5
Erythema, after treatment (chronic hand eczema; [5]): 0 (9×) and 0.5 (2×) and 2 and 0/0 and 2/2 and 1
Hyperkeratosis, after treatment (chronic hand eczema; [5]): 0 (8×) and 1/1 (2×) and 1 (2×) and 3/3 and 0.5 (2×)
Papules, vesicles, after treatment (chronic hand eczema; [5]): 0 (4×) and 1 (4×) and 0/0 (6×) and 0.5
Pruritus (+ pain), after treatment (chronic hand eczema; [5]): 0 (6×) and 1 (4×) and 2 (2×) and 7/7 and 0.5 (2×)
Rhagades, after treatment (chronic hand eczema; [5]): 0 (12×) and 2 and 2/2 and 1
Desquamation, before treatment (chronic hand eczema; [6]): 2 (4×) and 3 (4×) and 1 (4×) and 3/3 and 0/0 (2×)
Erythema, before treatment (chronic hand eczema; [6]): 1 (8×) and 2 (4×) and 4 and 0/0 and 2/2
Hyperkeratosis, before treatment (chronic hand eczema; [6]): 4 and 3 and 1/1 (2×) and 2 (8×) and 1 (2×) and 3/3
Papules, vesicles, before treatment (chronic hand eczema; [6]): 3 (3×) and 2 (3×) and 1 (3×) and 0/0 (6×)
Pruritus (+ pain), before treatment (chronic hand eczema; [6]): 2 (3×) and 3 (4×) and 4 (3×) and 5 (4×) and 7/7
Rhagades, before treatment (chronic hand eczema; [6]): 3 (3×) and 2 (5×) and 1 (5×) and 0.5 and 2/2
Regression of the various lesions and symptoms (erythema, papules and vesicles etc.) (chronic hand eczema; 40 mg daily oral): 62-100%
Musculoskeletal or other symptoms (chronic hand eczema; 40 mg daily, 15 patients): no musculoskeletal or other symptoms were observed
Overall response of the patients (chronic hand eczema; all fifteen patients, 40 mg daily): responded markedly
Reduction of Lesion/symptom score, in %, mean (chronic hand eczema; [7]): 76.3%
Reduction of Lesion/symptom score, in %, range (chronic hand eczema; [7]): 0-100%
Reduction of Lesion/symptom score, in %, mean (chronic hand eczema; [8]): mean 81.8%
Reduction of Lesion/symptom score, in %, range (chronic hand eczema; [8]): for the 14 responding patients 53-100, %
Reduction of Lesion/symptom score, in %, mean (chronic hand eczema; [9]): 81.3%
Reduction of Lesion/symptom score, in %, range (chronic hand eczema; [9]): 53-100%
Response assessed by doctor (chronic hand eczema; [10]): very good (6×) and good (7×) and no and moderate
Response assessed by patient (chronic hand eczema; [10]): very good (10×) and good (3×) and moderate and no
Patients with response good, assessment by doctor, number (chronic hand eczema; of 15 patients): 7
Patients with response good, assessment by doctor, percent (chronic hand eczema; of 15 patients): (47%)
Patients with response good, assessment by patient, number (chronic hand eczema; of 15 patients): 3
Patients with response good, assessment by patient, percent (chronic hand eczema; of 15 patients): (20%)
Patients with response moderate, assessment by doctor, number (chronic hand eczema; of 15 patients): 1
Patients with response moderate, assessment by doctor, percent (chronic hand eczema; of 15 patients): (6.5%)
Patients with response moderate, assessment by patient, number (chronic hand eczema; of 15 patients): 1
Patients with response moderate, assessment by patient, percent (chronic hand eczema; of 15 patients): (6.5%)
Patients with response no, assessment by doctor, number (chronic hand eczema; of 15 patients): 1
Patients with response no, assessment by doctor, percent (chronic hand eczema; of 15 patients): (6.5%)
Patients with response no, assessment by patient, number (chronic hand eczema; of 15 patients): 1
Patients with response no, assessment by patient, percent (chronic hand eczema; of 15 patients): (6.5%)
Patients with response slight, assessment by doctor, number (chronic hand eczema; of 15 patients): 0
Patients with response slight, assessment by doctor, percent (chronic hand eczema; of 15 patients): (0%)
Patients with response slight, assessment by patient, number (chronic hand eczema; of 15 patients): 0
Patients with response slight, assessment by patient, percent (chronic hand eczema; of 15 patients): (0%)
Patients with response very good, assessment by doctor, number (chronic hand eczema; of 15 patients): 6
Patients with response very good, assessment by doctor, percent (chronic hand eczema; of 15 patients): (40%)
Patients with response very good, assessment by patient, number (chronic hand eczema; of 15 patients): 10
Patients with response very good, assessment by patient, percent (chronic hand eczema; of 15 patients): (67%)
Response considered very good or good (doctor and patient), number of patients (chronic hand eczema; of 15 patients): 13
Response considered very good or good (doctor and patient), percent of patients (chronic hand eczema; of 15 patients): 87%
Total Score (0-4 scale), after treatment (chronic hand eczema; sum of lesion/symptom scores, individual patient, after 40 mg oral daily for 1-3 months): 1 (3×) and 2 (4×) and 4.5 (2×) and 3 and 0 (3×) and 8 and 17/17
Total Score (0-4 scale), before treatment (chronic hand eczema; sum of lesion/symptom scores, individual patient, before 40 mg oral daily): 15 and 14 (2×) and 11 (4×) and 10 (2×) and 17 and 9 (2×) and 17/17 and 13 and 8
Reduction of score in % (chronic hand eczema; total score, individual patient, 40 mg oral daily for 1-3 months): 93% and 86% and 59% and 61% and 74% and 100% (3×) and 53% and 89% (2×) and 0% and 85% and 82% and 75%
Other mucocutaneous manifestations, musculoskeletal or other symptoms [4]: seen with higher doses

Reference: patent publication US6589989B1, “Treatment of cell-mediated immune diseases” (Basilea Pharmaceutica AG, priority 1997, dated 2003)
